Experimental data: patent US11090304B2 (Amgen Inc., priority 2018, dated 2021)
pIC50: −log10 of the molar value. Read-outs that look alike come from different tables or passages of the source.

Assays:
[1] = test system: Phosphorylation of ERK1/2 in MIA PaCa-2 cells; test: Phospho-ERK1/2 MSD assay in MIA PaCa-2 cells; type: cell-based; details: read-out: p-ERK IC50 (2 h; MIA PaCa-2), 2 h compound treatment
Method in brief: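 Following a 2 or 4 h incubation with titrated compound, cells receive a 10 min pulse of 10 ng/mL EGF. Phospho-ERK1/2 in RIPA lysates is then quantified by MSD immunoassay, and IC50 values come from a four-parameter logistic model.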

[2] = molecular target: GDP-bound KRAS protein (aa 1-169), containing both G12C and C118A amino acid substitutions (Homo sapiens, UniProt P01116, C118A/G12C); test: Coupled nucleotide exchange assay (SOS-mediated, AlphaScreen); type: biochemical; details: 5 min compound pre-incubation
Chain of GDP-bound KRAS protein (aa 1-169), containing both G12C and C118A amino acid substitutions (P01116 1-169 isoform P01116-2 G12C/C118A): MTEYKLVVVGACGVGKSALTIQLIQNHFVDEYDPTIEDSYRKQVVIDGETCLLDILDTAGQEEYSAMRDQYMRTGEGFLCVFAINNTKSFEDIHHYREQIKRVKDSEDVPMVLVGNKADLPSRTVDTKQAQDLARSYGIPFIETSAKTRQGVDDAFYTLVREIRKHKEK

Structure (SMILES)	pIC50 ([1]; Homo sapiens, MIA PaCa-2, 2 h)	Coupled exchange IC50 (5 min) [2]	pIC50 [1]	pIC50 ([1]; Homo sapiens)
C=CC(=O)N1CCN(c2nc(=O)n(-c3c(C)cc(CO)cc3C(C)C)c3nc(-c4ccccc4F)c(Cl)cc23)[C@@H](C)C1 [80-2, 6-chloro-7-(2-fluorophenyl)-1-(4-(hydroxymethyl)-2-methyl-6-(2-propanyl)phenyl)-4-((2S)-2-methyl-4-(2-propenoyl)-1-piperazinyl) pyrido[2,3-d] pyrimidin-2(1H)-one]	7.01	0.11 | nda μM		
C=CC(=O)N1CCN(c2nc(=O)n(-c3c(C(C)C)nc[nH]c3=O)c3nc(-c4ccccc4F)c(Cl)cc23)[C@@H](C)C1 [Example 54-108, 6-chloro-7-(2-fluorophenyl)-4-((2S)-2-methyl-4-(2-propenoyl)-1-piperazinyl)-1-(6-oxo-4-(2-propanyl)-1,6-dihydro-5-pyrimidinyl) pyrido[2,3-d]pyrimidin-2(1H)-one]	5.42	0.434 | nda μM		
C=CC(=O)N1CCN(c2nc(=O)n(-c3c(C)ccnc3C(C)C)c3nc(-c4c(C)cccc4O)c(F)cc23)[C@@H](C)C1 (atropisomer, axis not shown; (M)) [Example 72-4, (M)-6-fluoro-7-(2-hydroxy-6-methylphenyl)-1-(4-methyl-2-(2-propanyl)-3-pyridinyl)-4-((2S)-2-methyl-4-(2-propenoyl)-1-piperazinyl)pyrido[2,3-d]pyrimidin-2(1H)-one]	6.94	0.08 | nda μM		
C=CC(=O)N1CCN(c2nc(=O)n(-c3c(CC)ncnc3CC)c3nc(-c4ccc(F)cc4F)c(Cl)cc23)[C@@H](C)C1 [Example 55-35, 6-chloro-1-(4,6-diethyl-5-pyrimidinyl)-7-(2,4-difluorophenyl)-4-((2S)-2-methyl-4-(2-propenoyl)-1-piperazinyl)pyrido[2,3-d]pyrimidin-2(1H)-one]	6.60	0.225 | nda μM		
C=CC(=O)N1CCN(c2nc(=O)n(-c3c(C)ccnc3C(C)C)c3nc(-c4c(O)cccc4F)c(F)cc23)[C@@H](C(F)F)C1 (single isomer, unassigned) [Example 75-9-2, (M)-4-((2S or 2R)-2-(difluoromethyl)-4-(2-propenoyl)-1-piperazinyl)-6-fluoro-7-(2-fluoro-6-hydroxyphenyl)-1-(4-methyl-2-(2-propanyl)-3-pyridinyl)pyrido[2,3-d]pyrimidin-2(1H)-one]		0.136 | nda μM		6.95
C=CC(=O)N1CCN(c2nc(=O)n(-c3c(C4CC4)ncnc3C3CC3)c3nc(-c4c(O)cccc4F)c(F)cc23)[C@@H](C)C1 [Example 59-4, 1-(4,6-dicyclopropyl-5-pyrimidinyl)-6-fluoro-7-(2-fluoro-6-hydroxyphenyl)-4-((2S)-2-methyl-4-(2-propenoyl)-1-piperazinyl)pyrido[2,3-d]pyrimidin-2(1H)-one]	6.79	0.133 | nda μM		
C=CC(=O)N1CCN(c2nc(=O)n(-c3c(C)cccc3C(C)C)c3cc(-c4c(O)cccc4F)c(Cl)cc23)[C@@H](C)C1 [Example 106, 6-Chloro-7-(2-fluoro-6-hydroxyphenyl)-1-(2-methyl-6-(2-propanyl)phenyl)-4-((2S)-2-methyl-4-(2-propenoyl)-1-piperazinyl)-2(1H)-quinazolinone]	6.98	0.074 | nda μM		
C=CC(=O)N1CCN(c2nc(=O)n(-c3c(C)ccnc3C(C)C)c3nc(-c4c(O)ccc(F)c4F)c(F)cc23)[C@@H](C)C1 (atropisomer, axis not shown; (M)) [Example 72-8, (M)-7-(2,3-difluoro-6-hydroxyphenyl)-6-fluoro-1-(4-methyl-2-(2-propanyl)-3-pyridinyl)-4-((2S)-2-methyl-4-(2-propenoyl)-1-piperazinyl)pyrido[2,3-d]pyrimidin-2(1H)-one]	7.04	0.042 | nda μM		
C=CC(=O)N1CCN(c2nc(=O)n(-c3c(C)cccc3C(C)C)c3nc(-c4nc(N)ccc4F)c(Cl)cc23)[C@@H](C)C1 [Example 70-4, 7-(6-amino-3-fluoro-2-pyridinyl)-6-chloro-1-(2-methyl-6-(2-propanyl)phenyl)-4-((2S)-2-methyl-4-(2-propenoyl)-1-piperazinyl)pyrido[2,3-d]pyrimidin-2(1H)-one]	6.55	0.398 | nda μM		

Continued, in another order:

pIC50 ([1]; Homo sapiens, MIA PaCa-2, 2 h)	Coupled exchange IC50 (5 min) [2]	pIC50 [1]	Structure (SMILES)	pIC50 ([1]; Homo sapiens)
6.50	0.318 | nda μM		C=CC(=O)N1CCN(c2nc(=O)n(-c3ccccc3CC(F)(F)F)c3nc(-c4c(O)cccc4F)c(Cl)cc23)[C@@H](C)C1 [Example 55-6, 6-chloro-7-(2-fluoro-6-hydroxyphenyl)-4-((2S)-2-methyl-4-(2-propenoyl)-1-piperazinyl)-1-(2-(2,2,2-trifluoroethyl)phenyl)pyrido[2,3-d]pyrimidin-2(1H)-one]	
6.59	0.332 | nda μM		C=CC(=O)N1CCN(c2nc(=O)n(-c3ccccc3C(C)C)c3nc(-c4ccccc4OC(F)F)c(Cl)cc23)[C@@H](C)C1 [Example 56-10, 6-chloro-7-(2-(difluoromethoxy)phenyl)-4-((2S)-2-methyl-4-(2-propenoyl)-1-piperazinyl)-1-(2-(2-propanyl)phenyl)pyrido[2,3-d]pyrimidin-2(1H)-one]	
6.81	0.328 | nda μM		C=CC(=O)N1CCN(c2nc(=O)n(-c3nccnc3C3CC3)c3nc(-c4ccccc4F)c(Cl)cc23)[C@@H](C)C1 [Example 60-10, 6-chloro-1-(3-cyclopropyl-2-pyrazinyl)-7-(2-fluorophenyl)-4-((2S)-2-methyl-4-(2-propenoyl)-1-piperazinyl)pyrido[2,3-d]pyrimidin-2(1H)-one]	
6.23	0.325 | nda μM		C=CC(=O)N1CCN(c2nc(=O)n(-c3c(C)ccnc3N(C)C)c3nc(-c4ccccc4F)c(Cl)cc23)[C@@H](C)C1 (single isomer, unassigned) [Example 55-7-2]	
6.42	0.582 | nda μM		C=CC(=O)N1CCN(c2nc(=O)n(-c3ccccc3Cl)c3nc(-c4c(O)cccc4F)c(Cl)cc23)[C@@H](C)C1 [Example 54-35, 6-chloro-1-(2-chlorophenyl)-7-(2-fluoro-6-hydroxyphenyl)-4-((2S)-2-methyl-4-(2-propenoyl)-1-piperazinyl) pyrido[2,3-d]pyrimidin-2(1H)-one]	
7.08	0.035 | nda μM		C=CC(=O)N1CCN(c2nc(=O)n(-c3c(C(C)C)ncc(O)c3C)c3nc(-c4ccccc4F)c(Cl)cc23)[C@@H](C)C1 (single isomer, unassigned) [Example 83-2]	
6.81	0.193 | nda μM		C=CC(=O)N1CCN(c2nc(=O)n(-c3ccccc3C(C)C)c3nc(-c4c(F)cccc4C#N)c(Cl)cc23)[C@@H](C)C1 (single isomer, unassigned) [Example 98-1]	
6.59	0.128 | nda μM		C=CC(=O)N1CCN(c2nc(=O)n(-c3ccccc3C3(C)CC3)c3nc(-c4c(O)cccc4F)c(Cl)cc23)[C@@H](C)C1 [Example 54-97, 6-chloro-7-(2-fluoro-6-hydroxyphenyl)-1-(2-(1-methylcyclopropyl)phenyl)-4-((2S)-2-methyl-4-(2-propenoyl)-1-piperazinyl) pyrido[2,3-d]pyrimidin-2(1H)-one]	
7.01	0.325 | nda μM		C=CC(=O)N1CCN(c2nc(=O)n(-c3ccccc3CC)c3nc(-c4c(O)cccc4F)c(Cl)cc23)[C@@H](C)C1 [Example 54-34, 6-chloro-1-(2-ethylphenyl)-7-(2-fluoro-6-hydroxyphenyl)-4-((2S)-2-methyl-4-(2-propenoyl)-1-piperazinyl) pyrido[2,3-d]pyrimidin-2(1H)-one]	
5.61	1.67 | nda μM		C=CC(=O)N1CCN(c2nc(=O)n(-c3nccnc3C(C)C)c3nc(-c4c(O)cccc4F)c(Cl)cc23)[C@@H](C)C1 [Example 54-21, 6-chloro-7-(2-fluoro-6-hydroxyphenyl)-4-((2S)-2-methyl-4-(2-propenoyl)-1-piperazinyl)-1-(3-(2-propanyl)-2-pyrazinyl) pyrido[2,3-d]pyrimidin-2(1H)-one]	
6.91	0.031 | nda μM		C=CC(=O)N1CCN(c2nc(=O)n(-c3c(O)cccc3C(C)C)c3nc(-c4ccccc4F)c(Cl)cc23)[C@@H](C)C1 (single isomer, unassigned) [Example 55-26-2]	
6.02	0.44 | nda μM		C=CC(=O)N1CCN(c2nc(=O)n(-c3c(C4CC4)ccnc3C)c3nc(-c4c(O)cccc4F)c(F)cc23)[C@@H](C)C1 [Example 58-19, 1-(4-cyclopropyl-2-methyl-3-pyridinyl)-6-fluoro-7-(2-fluoro-6-hydroxyphenyl)-4-((2S)-2-methyl-4-(2-propenoyl)-1-piperazinyl)pyrido[2,3-d]pyrimidin-2(1H)-one]	
	0.044 | nda μM	7.44	C=CC(=O)N1CCN(c2nc(=O)n(-c3c(C(C)C)ccnc3C)c3nc(-c4ccccc4F)c(Cl)cc23)[C@@H](C)C1 (single isomer, unassigned) [Example 54-18-1]	
6.39	0.404 | nda μM		C=CC(=O)N1CCN(c2nc(=O)n(-c3cncnc3C(C)(C)C)c3nc(-c4ccccc4F)c(Cl)cc23)[C@@H](C)C1 [Example 54-110, 6-chloro-7-(2-fluorophenyl)-1-(4-(2-methyl-2-propanyl)-5-pyrimidinyl)-4-((2S)-2-methyl-4-(2-propenoyl)-1-piperazinyl) pyrido[2,3-d]pyrimidin-2(1H)-one]	
